Assay results taken from ChEMBL document CHEMBL4339199 (ACS Med Chem Lett, 2019).
Calls of active or inactive are those of the source. The rule behind the calls is not given here.

Key:
[1] = target: T1, Tyrosine-protein kinase JAK3 (Homo sapiens, UniProt P52333); assay: Inhibition of GST-tagged JAK3 (unknown origin) using fluoresceinated peptide as substrate measured after 3 hrs by electrophoresis method
T1 sequence (P52333 whole entry): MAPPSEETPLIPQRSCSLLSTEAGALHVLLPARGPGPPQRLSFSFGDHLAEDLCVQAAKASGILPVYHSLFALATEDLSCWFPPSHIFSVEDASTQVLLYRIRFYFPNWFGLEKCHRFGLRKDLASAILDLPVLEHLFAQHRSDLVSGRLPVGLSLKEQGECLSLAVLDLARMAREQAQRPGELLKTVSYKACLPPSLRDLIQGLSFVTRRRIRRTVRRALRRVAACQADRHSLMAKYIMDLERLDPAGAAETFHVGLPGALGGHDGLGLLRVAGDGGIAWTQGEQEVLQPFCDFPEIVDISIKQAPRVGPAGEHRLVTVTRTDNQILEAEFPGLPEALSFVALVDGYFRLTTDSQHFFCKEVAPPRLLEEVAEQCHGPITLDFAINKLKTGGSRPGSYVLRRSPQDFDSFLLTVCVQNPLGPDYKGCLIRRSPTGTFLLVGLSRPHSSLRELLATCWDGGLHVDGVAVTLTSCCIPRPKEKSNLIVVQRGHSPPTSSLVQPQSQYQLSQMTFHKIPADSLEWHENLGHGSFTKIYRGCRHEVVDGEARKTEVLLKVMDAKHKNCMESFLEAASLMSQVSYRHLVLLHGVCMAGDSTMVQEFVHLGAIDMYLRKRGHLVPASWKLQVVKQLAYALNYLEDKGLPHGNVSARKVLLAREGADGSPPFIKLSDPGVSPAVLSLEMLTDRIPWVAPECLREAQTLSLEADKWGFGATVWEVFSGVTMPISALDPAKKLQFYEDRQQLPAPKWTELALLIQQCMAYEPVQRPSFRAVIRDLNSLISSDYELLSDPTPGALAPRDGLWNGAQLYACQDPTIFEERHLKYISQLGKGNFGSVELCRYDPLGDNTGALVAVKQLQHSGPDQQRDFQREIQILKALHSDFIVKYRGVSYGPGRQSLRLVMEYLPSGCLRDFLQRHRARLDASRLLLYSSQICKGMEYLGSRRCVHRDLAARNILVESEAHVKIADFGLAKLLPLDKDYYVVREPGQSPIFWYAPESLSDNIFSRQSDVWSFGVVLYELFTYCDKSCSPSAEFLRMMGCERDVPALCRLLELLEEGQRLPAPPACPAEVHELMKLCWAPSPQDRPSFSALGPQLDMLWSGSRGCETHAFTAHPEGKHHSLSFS

[2] = target: Non-receptor tyrosine-protein kinase TYK2 (Homo sapiens, UniProt P29597); assay: Inhibition of […] TYK2 (unknown origin) using fluoresceinated peptide as substrate measured after 3 hrs by electrophoresis method
Non-receptor tyrosine-protein kinase TYK2, sequence (P29597 whole entry): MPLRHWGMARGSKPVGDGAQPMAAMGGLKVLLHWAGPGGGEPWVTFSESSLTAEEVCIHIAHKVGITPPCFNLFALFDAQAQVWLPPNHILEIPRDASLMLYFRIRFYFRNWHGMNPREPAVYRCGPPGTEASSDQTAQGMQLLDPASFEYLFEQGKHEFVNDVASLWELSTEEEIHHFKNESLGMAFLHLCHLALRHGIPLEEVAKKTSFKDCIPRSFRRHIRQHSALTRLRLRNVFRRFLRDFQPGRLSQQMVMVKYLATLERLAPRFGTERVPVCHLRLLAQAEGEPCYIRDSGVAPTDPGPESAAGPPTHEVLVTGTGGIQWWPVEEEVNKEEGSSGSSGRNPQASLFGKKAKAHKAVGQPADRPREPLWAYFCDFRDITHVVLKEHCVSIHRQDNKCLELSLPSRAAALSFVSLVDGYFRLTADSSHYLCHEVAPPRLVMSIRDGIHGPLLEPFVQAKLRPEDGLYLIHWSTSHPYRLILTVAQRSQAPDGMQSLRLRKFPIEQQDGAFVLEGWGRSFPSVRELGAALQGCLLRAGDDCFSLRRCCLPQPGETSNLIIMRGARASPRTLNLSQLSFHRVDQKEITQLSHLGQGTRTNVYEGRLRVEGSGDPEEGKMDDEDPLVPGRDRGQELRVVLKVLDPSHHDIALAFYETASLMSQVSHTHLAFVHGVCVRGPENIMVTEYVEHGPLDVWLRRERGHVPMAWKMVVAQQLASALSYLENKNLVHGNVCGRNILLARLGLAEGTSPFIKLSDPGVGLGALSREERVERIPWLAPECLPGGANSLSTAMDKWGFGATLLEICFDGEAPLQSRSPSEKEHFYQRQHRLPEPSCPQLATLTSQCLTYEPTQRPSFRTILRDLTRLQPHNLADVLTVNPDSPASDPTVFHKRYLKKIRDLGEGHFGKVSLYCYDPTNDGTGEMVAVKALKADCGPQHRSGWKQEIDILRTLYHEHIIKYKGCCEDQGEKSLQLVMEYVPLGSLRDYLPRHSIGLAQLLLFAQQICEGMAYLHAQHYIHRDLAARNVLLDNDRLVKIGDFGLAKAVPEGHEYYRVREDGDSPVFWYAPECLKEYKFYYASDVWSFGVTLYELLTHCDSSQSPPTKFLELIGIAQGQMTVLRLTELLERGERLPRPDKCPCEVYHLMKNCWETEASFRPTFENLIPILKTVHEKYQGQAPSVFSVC

[3] = target: Tyrosine-protein kinase JAK2 (Homo sapiens, UniProt O60674); assay: Inhibition of GST-tagged JAK2 (unknown origin) using fluoresceinated peptide as substrate measured after 3 hrs by electrophoresis method
Tyrosine-protein kinase JAK2, sequence (O60674 whole entry): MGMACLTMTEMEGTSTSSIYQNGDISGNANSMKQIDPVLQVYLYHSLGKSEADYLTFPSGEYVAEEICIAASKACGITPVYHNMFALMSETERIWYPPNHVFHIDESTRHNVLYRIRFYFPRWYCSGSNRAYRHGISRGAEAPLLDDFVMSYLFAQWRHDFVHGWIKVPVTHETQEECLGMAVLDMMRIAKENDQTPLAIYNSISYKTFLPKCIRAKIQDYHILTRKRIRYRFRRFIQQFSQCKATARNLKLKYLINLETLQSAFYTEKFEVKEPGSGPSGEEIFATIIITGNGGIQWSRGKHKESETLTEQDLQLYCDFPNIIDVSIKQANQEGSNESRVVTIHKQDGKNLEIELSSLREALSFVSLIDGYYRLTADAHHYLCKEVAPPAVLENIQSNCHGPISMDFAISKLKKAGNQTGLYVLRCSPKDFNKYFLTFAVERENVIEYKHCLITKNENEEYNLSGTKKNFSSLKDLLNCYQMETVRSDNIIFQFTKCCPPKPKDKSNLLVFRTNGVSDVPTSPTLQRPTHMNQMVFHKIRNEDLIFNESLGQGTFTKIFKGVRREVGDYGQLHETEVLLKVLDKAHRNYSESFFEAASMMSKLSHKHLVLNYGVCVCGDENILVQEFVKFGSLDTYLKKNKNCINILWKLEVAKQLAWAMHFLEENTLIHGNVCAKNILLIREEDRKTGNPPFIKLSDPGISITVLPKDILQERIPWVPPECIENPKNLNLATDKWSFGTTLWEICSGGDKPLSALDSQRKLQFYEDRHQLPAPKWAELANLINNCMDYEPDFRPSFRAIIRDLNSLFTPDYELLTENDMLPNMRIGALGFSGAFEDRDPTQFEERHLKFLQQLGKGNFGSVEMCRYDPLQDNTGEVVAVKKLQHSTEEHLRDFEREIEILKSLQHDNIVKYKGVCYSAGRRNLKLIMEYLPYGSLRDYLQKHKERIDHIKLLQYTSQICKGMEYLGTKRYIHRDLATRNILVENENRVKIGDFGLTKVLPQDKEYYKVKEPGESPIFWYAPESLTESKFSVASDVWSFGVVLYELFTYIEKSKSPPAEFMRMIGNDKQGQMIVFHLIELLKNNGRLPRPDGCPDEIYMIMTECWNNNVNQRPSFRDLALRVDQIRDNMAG

T-cell = assay: Inhibition of IL2-induced human PBMC-derived T cell proliferation preincubated for 60 mins followed by IL-2 stimulation and measured after 3 days by [3H]thymidine incorporation based topcount method; type: functional
[4] = Octanol-water partition coefficient, log P of the compound at pH 6.5 by HPLC analysis; type: physicochemical
[5] = target: Tyrosine-protein kinase JAK1 (Homo sapiens, UniProt P23458); assay: Inhibition of GST-tagged JAK1 (unknown origin) using fluoresceinated peptide as substrate measured after 3 hrs by electrophoresis method
Tyrosine-protein kinase JAK1, sequence (P23458 whole entry): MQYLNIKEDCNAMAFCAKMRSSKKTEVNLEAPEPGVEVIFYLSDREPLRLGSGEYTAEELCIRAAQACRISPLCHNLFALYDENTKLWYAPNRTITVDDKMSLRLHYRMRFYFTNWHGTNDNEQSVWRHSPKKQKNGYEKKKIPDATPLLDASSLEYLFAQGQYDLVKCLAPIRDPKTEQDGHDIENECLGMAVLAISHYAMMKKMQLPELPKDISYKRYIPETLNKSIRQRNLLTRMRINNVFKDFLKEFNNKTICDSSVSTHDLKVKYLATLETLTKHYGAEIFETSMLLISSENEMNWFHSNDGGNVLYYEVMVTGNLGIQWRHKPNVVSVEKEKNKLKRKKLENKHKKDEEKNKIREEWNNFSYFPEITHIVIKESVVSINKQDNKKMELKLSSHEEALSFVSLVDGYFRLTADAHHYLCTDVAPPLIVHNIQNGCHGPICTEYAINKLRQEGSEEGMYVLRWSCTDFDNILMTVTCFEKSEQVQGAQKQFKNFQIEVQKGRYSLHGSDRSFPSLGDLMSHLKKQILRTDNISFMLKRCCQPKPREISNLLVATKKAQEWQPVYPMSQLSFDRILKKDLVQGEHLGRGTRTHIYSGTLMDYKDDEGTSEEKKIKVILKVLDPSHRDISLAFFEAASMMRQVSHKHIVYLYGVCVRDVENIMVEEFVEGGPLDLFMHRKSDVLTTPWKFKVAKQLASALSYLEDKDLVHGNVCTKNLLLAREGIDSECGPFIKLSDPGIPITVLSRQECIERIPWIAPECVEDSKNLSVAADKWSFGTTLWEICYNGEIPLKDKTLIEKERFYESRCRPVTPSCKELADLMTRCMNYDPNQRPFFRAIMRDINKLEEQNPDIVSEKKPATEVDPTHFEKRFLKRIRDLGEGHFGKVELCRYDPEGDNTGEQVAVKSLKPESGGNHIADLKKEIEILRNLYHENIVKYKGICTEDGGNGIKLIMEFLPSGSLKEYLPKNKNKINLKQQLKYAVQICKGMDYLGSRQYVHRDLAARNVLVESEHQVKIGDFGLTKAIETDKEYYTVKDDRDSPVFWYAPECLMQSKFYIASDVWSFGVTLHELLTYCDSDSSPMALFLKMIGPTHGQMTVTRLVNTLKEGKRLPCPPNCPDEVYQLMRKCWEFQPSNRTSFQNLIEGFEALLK

[6] = Aqueous solubility of the compound; type: physicochemical; conditions: buffer
[7] = Stability in mouse microsomes assessed as parent compound remaining measured after 10 mins; type: ADME, Microsome; conditions: read-out: Stability
[8] = Lipophilicity, log P of the compound; type: physicochemical; conditions: octanol/water
Blood = assay: Inhibition of IL2-induced IFNgamma production in CD3/CD28 antibody-stimulated human whole blood measured after 18 hrs by ELISA; type: functional, tissue-based
Mus musculus [9] = assay: Antiinflammatory activity in DBA1 mouse model of collagen-induced inflammation assessed as reduction in rheumatoid arthritis score in paw administered daily via oral gavage for 21 days starting from 21 days post-immunization and measured 3 times every week following booster immunization; type: functional, organism-based
[10] = Prodrug conversion in DBA1 mouse assessed as 4-((2R,3R)-l,3-Dihydroxybutan-2-ylamino)-6-phenylpyrrolo [ 1,2-b]pyridazine-3 carboxamide formation at 140 mg/kg, po administered via gavage; type: ADME, organism-based; conditions: in vivo
[11] = AUC in mouse at 10 mg/kg, po; type: ADME, organism-based; conditions: in vivo
[12] = Solubility of the compound in water; type: physicochemical; conditions: buffer
[13] = AUC in mouse at 40 mg/kg, po; type: ADME, organism-based; conditions: in vivo
[14] = Cmax in mouse at 50 mg/kg, po administered as microsuspension formulation; type: ADME, organism-based; parameters: dose 50 mg/kg, route oral; conditions: in vivo
[15] = Stability in human liver microsomes; type: ADME, Microsome
[16] = Solubility of the compound in phosphate buffer using crystalline compound; type: physicochemical
[17] = Time at which plasma concentration stays above in vitro IC50 for inhibition of IL2-induced IFNgamma production in CD3/CD28 antibody-stimulated human whole blood in mouse at 10 mg/kg, po; type: organism-based; conditions: in vivo
[18] = Solubility of the compound in 5%EtOH/5%TPGS/90%PEG300 formulation; type: physicochemical
[19] = Permeability of the compound by PAMPA; type: ADME
[20] = Stability in rat liver microsomes; type: ADME, Microsome
[21] = Solubility of the compound in water using amorphous compound; type: physicochemical; conditions: buffer
[22] = Stability in mouse liver microsomes; type: ADME, Microsome
[23] = Cmax in mouse at 10 mg/kg, po; type: ADME, organism-based; parameters: dose 10 mg/kg, route oral; conditions: in vivo
Mus musculus [24] = assay: Antiinflammatory activity in DBA1 mouse model of collagen-induced inflammation assessed as reduction in rheumatoid arthritis score in paw at 6.6 mg/kg administered daily via oral gavage for 21 days starting from 21 days post-immunization and measured 3 times every week following booster immunization; type: functional, organism-based

SMILES	IC50 [1] [nM]	IC50 [2] [nM]	IC50 [3] [nM]	IC50 (T-cell; Homo sapiens, T-cell) [nM]	IC50 [5] [nM]	IC50 (Blood) [nM]	also measured
COc1ccc(-c2cc3c(N[C@H](CO)[C@@H](C)O)c(C(N)=O)cnn3c2)cn1	2	27	57	370			logD [4]: 2.2
COc1ccc(-c2cc3c(NC(CO)[C@H](O)C4CC4)c(C(N)=O)cnn3c2)cn1 (stereo in doubt; 18)	100	2000	1400		620		IC50 (T-cell; t-cell): 4800 nM
CC(C)CNc1c(C(N)=O)cnn2cc(-c3ccccc3)cc12	4	63	160		30	> 4000	solubility [6]: < 1 µg/mL; remaining at 10 min [7]: < 50%; logP [8]: 3.94
CC(C)(C)CNc1c(C(N)=O)cnn2cc(-c3ccccc3)cc12	8	70	110		33	> 4000	solubility [6]: < 1 µg/mL; remaining at 10 min [7]: < 50%
CC(C)Nc1c(C(N)=O)cnn2cc(-c3ccccc3)cc12	15	150	190		40	> 4000	solubility [6]: < 1 µg/mL; remaining at 10 min [7]: < 50%
NC(=O)c1cnn2cc(-c3ccccc3)cc2c1NC1CCCC1	5	20	50		13	> 4000	solubility [6]: < 1 µg/mL; remaining at 10 min [7]: < 50%
COc1ccc(-c2cc3c(N[C@H](CO)CC4CC4)c(C(N)=O)cnn3c2)cn1	1	120	25	290	32	> 4000	
C[C@@H](O)[C@H](CO)Nc1c(C(N)=O)cnn2cc(-c3ccccc3)cc12	180	510	1700	1800	110		
C[C@@H](O)[C@@H](COP(=O)([O-])[O-])Nc1c(C(N)=O)cnn2cc(-c3ccccc3)cc12.[Na+].[Na+]							Activity (Mus musculus [9]): Dose-dependent effect; Drug metabolism [10]: Metabolite_Detected; AUC [11]: 1 µM·h; solubility [12]: Soluble; AUC [13]: 6 µM·h
C[C@@H](O)[C@@H](CO)Nc1c(C(N)=O)cnn2cc(-c3ccccc3)cc12		34	70	70	5	500	Cmax [14]: 100 nM; Stability [15]: Stable; solubility [16]: Insoluble; Time [17]: 3 h; solubility [18]: Insoluble; permeability [19]: Permeable; Stability [20]: Stable; solubility [21]: Insoluble; Stability [22]: Stable; Cmax [23]: > 3000 nM; logD [4]: 2.42
CC(C)CCNc1c(C(N)=O)cnn2cc(-c3ccccc3)cc12	11	160	220		110	> 4000	solubility [6]: < 1 µg/mL; remaining at 10 min [7]: < 50%; logP [8]: 5.08
C[C@@H]1CCN(C(=O)CC#N)C[C@@H]1N(C)c1ncnc2[nH]ccc12							Activity (Mus musculus [24]): Active
C[C@H](O)[C@H](CO)Nc1c(C(N)=O)cnn2cc(-c3ccccc3)cc12	160	1300	1800	2000	180		
C[C@H](O)[C@@H](CO)Nc1c(C(N)=O)cnn2cc(-c3ccccc3)cc12	13	210	370	870	38		
COc1ccc(-c2cc3c(N[C@H](CO)CC(C)C)c(C(N)=O)cnn3c2)cn1	3	180	30	190	23	3900	
COc1ccc(-c2cc3c(NC(CO)[C@H](O)C4CC4)c(C(N)=O)cnn3c2)cn1 (stereo in doubt; 19)	2	130	45		21	730	IC50 (T-cell; t-cell): 500 nM
COc1ccc(-c2cc3c(NC(CO)CO)c(C(N)=O)cnn3c2)cn1	38	330		11000	200		
